Reference: patent US20130316994A1, “Methods of Reducing Risk of Hepatobiliary Dysfunction During Rapid Weight Loss with METAP-2 Inhibitors” (Zafgen, Inc., priority 2010, published 2013)

Test system: alkaline phosphatase
Experiment: Administration of MetAP2 inhibitor to obese patients: alkaline phosphatase
Assay type: in vivo, human
Settings: 0.1, 0.3 or 0.9 mg/m^2 administered biweekly for 26 days, versus placebo, FIG. 1
Description: Patients treated with either a placebo, 0.1 mg/m^2 (approximately 0.2 mg per dose) of the MetAP2 inhibitor O-(4-dimethylaminoethoxycinnamoyl)fumagillol, 0.3 mg/m^2 (approximately 0.6 mg per dose), or 0.9 mg/m^2 of calculated body surface area (approximately 1.9 mg per dose) administered biweekly for 26 days. […] This reduction is indicative of a decrease in hepatic injury or hepatobiliary dysfunction, which is consistent with reduced biliary sludging and/or gallstone formation.

`CO[C@@H]1[C@H](OC(=O)C=Cc2ccc(OCCN(C)C)cc2)CC[C@]2(CO2)[C@H]1[C@@]1(C)O[C@@H]1CC=C(C)C` [O-(4-dimethylaminoethoxycinnamoyl)fumagillol] was tested. Which “reduction in alkaline phosphatase” value did it give?
Its value is “significant reduction in alkaline phosphatase was observed with increasing MetAP2 inhibitor dosage”.
